Assay results reported in publication PMC5559328 (Clinical cancer research : an official journal of the …, 2017).
Where a name gives a salt, the structure may show the parent alone. Read-outs that look alike come from different tables or passages of the source.

Assays:
[1] = system: patients with advanced solid tumors; set-up: species or system human; details: in vivo
[2] = Plasma drug exposure of ABC294640; format: in vivo, human; details: for Trough drug level: Day 28 prior to drug administration; for AUC(0-inf) / AUC(0-t): oral
[3] = system: plasma S1P and dihydroC16-ceramide; test: Plasma sphingolipid pharmacodynamics; format: in vivo, human
[4] = biological target: SK2; details: ref [17], [21], cited from earlier work
[5] = system: tumors; details: mouse models; ref [21]; cited from earlier work
[6] = system: plasma S1P; details: at therapeutically efficacious drug doses; ref [34]; cited from earlier work
[7] = cited from earlier work
[8] = 250 and 500 mg treatment groups

What does the source list for `O=C(NCc1ccncc1)C12CC3CC(C1)CC(c1ccc(Cl)cc1)(C3)C2` [ABC294640, 4-pyridinylmethyl-3-(4-chlorophenyl)adamantinecarboxamide, hydrochloride salt]?
Patients with psychiatric disorders ([1]; human): 2 patients; Patients with treatment-related nervous system disorders ([1]; human): 6 patients; Fatigue (treatment-related adverse event) ([1]; human, 28 day): 0 n (%); Creatinine Increase (treatment-related adverse event) ([1]; human, 28 days): 0 n (%); Fatigue (treatment-related adverse event) ([1]; human, 28 days): 5 (24) n (%); Hyperbilirubinemia (treatment-related adverse event) ([1]; human, 28 days): 0 n (%); Vision Change (treatment-related adverse event) ([1]; human, 28 days): 0 n (%); Recommended Phase II Dose ([1]; human, po, 28 day cycles, continuous): 500 mg bid; Tolerability of dose level [1]: not to be tolerable; Trough drug level ([2]; 250 mg bid, n=3): 0.29 ± 0.15 µg/mL; Trough drug level ([2]; 250 mg qd, n=5): 0.20 ± 0.34 µg/mL; Ratio AUC0-T at Day 28 to AUCINF at Day 1 ([2]; 500 mg bid): 1.25; Trough drug level ([2]; 500 mg bid, n=5): 1.82 ± 0.85 µg/mL; Ratio AUC0-T at Day 28 to AUCINF at Day 1 ([2]; 750 mg bid): 1.85; Trough drug level ([2]; 750 mg bid, n=1): 4.48 µg/mL; AUC(0-inf) ([2]; human, plasma, 250 mg): 15200 ± 8230 ng·h/mL; AUC(0-t) ([2]; human, plasma, 250 mg): 17800 ± 15200 ng·h/mL; AUC(0-inf) ([2]; human, plasma, 500 mg): 40700 ± 28000 ng·h/mL; AUC(0-t) ([2]; human, plasma, 500 mg): 50800 ± 11300 ng·h/mL; Tmax ([2]; human, plasma, po): 1 to 2 h; half-life ([2]; human, plasma, po): 5 to 15 h; Maximum plasma S1P decrease ([3]; 250 mg (Days 1 and 28, 250 mg qd with 250 mg bid combined), n=10): 51±6%; Maximum plasma S1P decrease ([3]; 500 mg (Days 1 and 28 combined), n=5): 46±9%; Maximum plasma S1P decrease ([3]; 750 mg (Days 1 and 28 combined), n=2): 54±14%; Time of maximum elevation of plasma dihydroC16-ceramide [3, 8]: 8 to 12 h; Time of return of plasma dihydroC16-ceramide to baseline [3, 8]: 24 h; Time of minimum plasma S1P level after treatment ([3]; patients, all doses): 12 h; Time of recovery of plasma S1P to baseline ([3]; patients, all doses): ≤ 24 h; Ki ([4]; read-out: Ki, SK2): 9 µM; Ki, SK2 [4]: 3.4 µg/mL; Mode of SK2 inhibition [4]: competitive with respect to sphingosine; Dose at which single-agent antitumor activity is typically apparent [5]: ≥ 25 mg/kg/day; Reduction of plasma S1P levels [6]: up to 50%; half-life ([7]; across several species, extensive preclinical work): approximately 4 hours; Half-life predicted by animal data ([7]; animal data): ~ 4.5 hours
